Where “and” joins values, the source holds several entries; their conditions need not be identical. Equal entries are not always repeated. Where two headings read alike, the source gives them in different places.
Assays:
cardiomyocytes = details: ref Beigi et al. 2006, Jóźwiak et al. 2007, cited from earlier work; for maximum contractile response: cardiomyocyte model, Woo et al. 2009
isolated rat hepatocytes = details: ref Koster et al. 1986, cited from earlier work
[1] = Mean (CV%)
[2] = Urinary excretion after intravenous administration to rats; assay type: in vivo, rat
[3] = tested on: β2-AR coupled GS signaling; details: ref Woo et al. 2009; cited from earlier work
[4] = Urinary excretion after oral administration to rats; assay type: in vivo, rat
isolated rat enterocytes = details: ref Koster et al. 1986, cited from earlier work
[5] = not given; remark: listed apart in the source
[6] = racemic-Fen 2 mg kg^-1 intravenous, male Wistar rats; ref Koster et al. 1985; cited from earlier work
[7] = rat; ref Koster et al. 1985, 1986; Hildebrandt et al. 1994; cited from earlier work
[8] = model parameter, iv 5 and oral 25 mg kg^-1
[9] = intravenous 5 mg kg^-1, n=5, mean

CC(Cc1ccc(O)cc1)NCC(O)c1cc(O)cc(O)c1 [(R,R)-Fen, (R,R)-Fenoterol]
maximum contractile response (cardiomyocytes): significant increase | EC50 in the cardiomyocyte model (cardiomyocytes): reduced | Clint, conversion to (R,R)-Fen-PG (isolated rat hepatocytes; isolated rat hepatocytes): 0.00148 ± 0.00032 mL/min/kg | CL ([1]; calculated from model parameters, equation (5)): 170 (8%) ml min^-1kg^-1 | Vss ([1]; calculated from model parameters, equation (6)): 11.6 (15%) l kg^-1 | T1/2λz ([1]; calculated from model parameters, equations (7) and (8)): 96.4 (12%) min | Vc ([1]; model parameter): 3.94 (20%) l kg^-1 | ka1 ([1]; model parameter): 0.004 (39%) min^-1 | ka2 ([1]; model parameter): 0.167 (79%) min^-1 | k10 [1, 8]: 0.043 min^-1 and 0.043 (15%) min^-1 | k12 [1, 8]: 0.023 (26%) min^-1 | k21 [1, 8]: 0.012 (18%) min^-1 | F ([1]; model parameter, systemic bioavailability): 0.473 (25%) | Tmax (intravenous 5 mg kg^-1, n=5): 5.0 min | AUC0-inf. [9]: 36200 ng·min/mL | C0 [9]: 2237 ng/mL | Cl [9]: 146 mL/min/kg and 145.7 mL/min/kg | T1/2λz [9]: 1.815 h | VSS [9]: 8.2 L/kg | area under the curve (AUC) (intravenous administration): 119 nmol·min/mL | Dose (%) excreted into urine ([2]; after intravenous (R,R)-Fen 5 mg kg^-1, 0-6 h, individual animals): 2.24% and 7.75% | Dose (%) excreted into urine ([2]; after intravenous (R,R)-Fen 5 mg kg^-1, 6-24 h): 1.70 ± 1.77% | Dose (%) excreted into urine ([2]; after intravenous (R,R)-MFen 5 mg kg^-1, 0-6 h): 1.43 ± 0.21% | Dose (%) excreted into urine ([2]; after intravenous (R,R)-MFen 5 mg kg^-1, 6-24 h): 0.17 ± 0.05% | dose excreted in the cumulative 24-h urine collection ([2]; after intravenous administration of (R,R)-Fen): about 7% | administered dose excreted, 24-h cumulative urinary excretion ([2]; after intravenous administration of (R,R)-MFen): about 2% | β2-AR coupled GS signaling [3]: selectively activates | Dose (%) excreted into urine ([4]; after oral (R,R)-Fen 25 mg kg^-1, 0-6 h, one animal): 0.17% | Dose (%) excreted into urine ([4]; after oral (R,R)-Fen 25 mg kg^-1, 6-24 h): 0.16 ± 0.12% | Dose (%) excreted into urine ([4]; after oral (R,R)-MFen 25 mg kg^-1, 0-6 h, individual animals): 0.05% and 0.04% | Dose (%) excreted into urine ([4]; after oral (R,R)-MFen 25 mg kg^-1, 6-24 h): 0.02 ± 0.01% | dose excreted in the cumulative 24-h urine collection ([4]; after oral administration of (R,R)-Fen): less than 1% | administered dose excreted, cumulative urine ([4]; after oral administration of (R,R)-MFen): Trace amounts | Clint, conversion to (R,R)-Fen-PG (isolated rat enterocytes; isolated rat enterocytes): 0.00079 ± 0.0002 mL/min/kg | Cmax ([5]; oral 25 mg kg^-1): 6.9 ± 0.3 nM | Tmax ([5]; oral 25 mg kg^-1): 2 h | AUC0-inf. ([5]; oral 25 mg kg^-1, mean): 692 ng·min/mL and 691.7 ng·min/mL | Cmax ([5]; oral 25 mg kg^-1, mean): 2.1 ng/mL | T1/2λz ([5]; oral 25 mg kg^-1, mean): 2.808 h | net exposure (AUC) ([5]; oral administration 25 mg kg^-1): 2.3 nmol·min/mL

C[C@H](Cc1ccc(O[C@@H]2O[C@H](C(=O)O)[C@@H](O)[C@H](O)[C@H]2O)cc1)NC[C@H](O)c1cc(O)cc(O)c1 [(R,R)-Fen-PG]
observed fraction of (R,R)-Fen-PG formation (isolated rat hepatocytes; hepatocytes): 0.28 ± 0.01 | observed fraction of (R,R)-Fen-PG formation (isolated rat enterocytes; enterocytes): 0.52 ± 0.01

COc1ccc(CC(C)NCC(O)c2cc(O)cc(O)c2)cc1 [(R,R)-MFen, (R,R)-methoxyfenoterol]
maximum contractile response (cardiomyocytes): significant increase

CC(Cc1ccc(O)cc1)NCC(O)c1cc(O)cc(O)c1 [(S,S)-Fen]
maximum contractile response (cardiomyocytes): no observed effect

CC(Cc1ccc(O)cc1)NCC(O)c1cc(O)cc(O)c1 (stereo not drawn) [Fen, 5-[1-hydroxy-2-[[2-(4-hydroxyphenyl)-1-methylethyl]-amino]-ethyl]-1,3-benzenediol]
Vss [6]: 1.3 L/kg | clearance [6]: 72.8 mL/min/kg | k10 [6]: 0.197 min⁻¹ | bioavailability after oral administration [7]: less than 1%

— PMC2841397 (Xenobiotica; the fate of foreign compounds in biological …, 2010)
